Assay results from patent US20150150246A1, “USE OF INSECT GROWTH REGULATORS IN COCKROACH CONTROL” (MCLAUGHLIN GORMLEY KING COMPANY, priority 2013, published 2015).
Read-outs that look alike come from different tables or passages of the source.

Experiments:
[1] = tested on: German cockroach males; details: cited from earlier work
[2] = tested on: German cockroaches; details: male, German cockroach, in vivo, po
Experimental: Adult male German cockroaches were obtained directly from German cockroach colonies maintained in the laboratory after a brief exposure to CO2 to facilitate handling. Cohorts of similar age (˜11 weeks old), adult male cockroaches (˜300 individuals) were randomly selected and moved into holding containers (Lock&Lock containers, Lock&Lock Co. Ltd., Dallas, Tex., USA) using a pair of soft tissue forceps. Cockroaches were starved in holding containers for 48 hours. Following starvation, cockroaches were transferred into the fecal collection apparatus. The fecal collection apparatus consisted of two vertically connected holding containers (Lock&Lock Co. Ltd., Dallas, Tex., USA) separated by a mesh screen. Cockroaches were introduced into the upper compartment of the collection apparatus and fecal pellets were collected from the floor of the lower container. The floor of the lower container was sealed with aluminum foil to facilitate the removal of fecal pellets. […] Fecal pellets were collected weekly until a sufficient amount of faeces was obtained to achieve analytical quantification. Quantification of pyriproxyfen was made by standard high-performance liquid chromatography-mass spectrometry (HPLC-MS) developed for pyriproxyfen. […]

[3] = tested on: cockroaches; test: Efficacy of bait at different pyriproxyfen concentrations; details: in vivo
Experimental: In one embodiment, the bait comprises abamectin at 0.05% and pyriproxyfen at 0.5% by weight. Efficacy was observed from 0.05 to 1.0% of pyriproxyfen. No higher doses were tested due to physical changes to the matrix, but higher amounts could be used by modifying the matrix. Pyriproxyfen is non-repellent so biologically 1.0% is not an absolute upper concentration limit.

[4] = tested on: German cockroaches; test: Reproductive inhibition by harborages contaminated with pyriproxyfen-containing fecal pellets (secondary exposure); format: in vivo, German cockroach

Compound: N#Cc1nn(-c2c(Cl)cc(C(F)(F)F)cc2Cl)c(N)c1[S+]([O-])C(F)(F)F (stereo not drawn) [fipronil]
- mortality of German cockroach males ([1]; 24-hour post-bait introduction, laboratory studies): 100%

Compound: abamectin
- mortality of German cockroach males ([1]; in 5 days, same conditions): 100%

Compound: CC(COc1ccc(Oc2ccccc2)cc1)Oc1ccccn1 (stereo not drawn) [pyriproxyfen]
- portion of ingested pyriproxyfen present in the frass [2]: ~60%
- repellency [3]: non-repellent
- suppression of the reproductive output of exposed cockroaches ([4]; consumption of pyriproxyfen contaminated frass (secondary exposure)): 100%
- suppression of reproductive maturation ([4]; fecal pellets deposited following consumption of pyriproxyfen): 100%
